# Test results reported in patent US11591315B2, “Substituted pyrazole-pyrimidines, variants thereof, and uses therefore” (Afferent Pharmaceuticals, Inc., priority 2016, dated 2023).
# Legend:
# human P2X3 receptor = molecular target: T1, human P2X3 receptor (Homo sapiens, UniProt P56373); test: FlexStation calcium fluorescence assay, HEK293 cells stably transfected with human P2X3 (homomeric P2X3 channels); assay type: cell-based; conditions: HEK-hP2X3 cells, Calcium 6 dye, agonist 1 μM α,β-meATP, 20 minutes incubation; read-out: Average pIC50 P2X3 (converted)
# T1 construct: expressed in transfected cells; host or cells: HEK293 human embryonic kidney cells (HEK-hP2X3)
# T1 sequence (P56373 1-397): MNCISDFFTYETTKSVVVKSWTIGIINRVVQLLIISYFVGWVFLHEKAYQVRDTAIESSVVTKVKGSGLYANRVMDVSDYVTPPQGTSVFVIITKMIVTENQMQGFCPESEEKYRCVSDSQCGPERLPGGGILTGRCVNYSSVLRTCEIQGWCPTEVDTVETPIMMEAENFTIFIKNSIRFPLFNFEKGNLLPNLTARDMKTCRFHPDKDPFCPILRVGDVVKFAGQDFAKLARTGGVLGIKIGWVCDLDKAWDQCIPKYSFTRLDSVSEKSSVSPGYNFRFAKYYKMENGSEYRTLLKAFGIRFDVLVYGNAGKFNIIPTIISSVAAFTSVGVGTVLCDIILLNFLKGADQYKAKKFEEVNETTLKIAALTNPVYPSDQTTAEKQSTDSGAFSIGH
# Experimental: (§1) 1321N1 human astrocytoma and HEK293 human embryonic kidney cells were stably transfected with human P2X2 and P2X3 receptor subunits to form heteromeric P2X2/3 channels and passaged in flasks. Additionally, HEK293 cells were stably transfected with human P2X3 receptor subunits to form homomeric P2X3 channels.
# (§2) Approximately 24 hours before the FlexStation calcium fluorescence experiment, cells were released from their flasks, centrifuged and re-suspended in nutrient medium. The cells were aliquoted into black-wall, clear-bottom 96 well plates at a density of 25,000 cells per well and incubated overnight in a humidified, CO2-enriched (5%) atmosphere at 37° C. […]
# (§3) After 20 minutes incubation at room temperature and protected from light, the assay plates were loaded into the FlexStation microplate reader and baseline fluorescence measured with an excitation wavelength of 485 nm and emission wavelength readings centered at 525 nm (515 nm cut off).
# (§4) The agonist was dispensed by the FlexStation during fluorescence measurement to construct agonist activation and antagonist inhibition curves. […] Peak fluorescence was measured and curves generated using a four parameter nonlinear regression equation. […]
# human P2X2/3 channels = molecular target: T2, human P2X2/3 channels (Homo sapiens, UniProt P56373+Q9UBL9); test: FlexStation calcium fluorescence assay, 1321N1 cells stably transfected with human P2X2 and P2X3 (heteromeric P2X2/3 channels); assay type: cell-based; conditions: 1321N1-hP2X2/3 cells, Fluo-4 dye, agonist ATP, 20 minutes incubation; read-out: Average pIC50 P2X2/3 (converted)
# T2 construct: expressed in transfected cells; host or cells: 1321N1 human astrocytoma cells (1321N1-hP2X2/3)
# T2 sequence (P56373 1-397): T1 sequence (P56373 1-397)
# T2 sequence (Q9UBL9 1-471): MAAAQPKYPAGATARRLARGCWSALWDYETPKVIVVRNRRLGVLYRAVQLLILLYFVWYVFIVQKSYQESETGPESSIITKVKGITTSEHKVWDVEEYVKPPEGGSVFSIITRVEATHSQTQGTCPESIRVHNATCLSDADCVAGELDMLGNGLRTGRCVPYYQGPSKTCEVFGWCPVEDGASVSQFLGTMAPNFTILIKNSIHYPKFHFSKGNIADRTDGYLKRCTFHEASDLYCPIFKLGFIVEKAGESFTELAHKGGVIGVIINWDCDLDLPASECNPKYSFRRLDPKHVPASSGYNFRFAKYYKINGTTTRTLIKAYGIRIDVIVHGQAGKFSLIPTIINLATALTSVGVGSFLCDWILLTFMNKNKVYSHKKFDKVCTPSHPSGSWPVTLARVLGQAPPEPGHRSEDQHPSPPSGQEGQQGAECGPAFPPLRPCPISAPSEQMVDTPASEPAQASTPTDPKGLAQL
# Experimental: as §1, §2, §3, §4
SMILES,IC50 (human P2X3 receptor) [µM],IC50 (human P2X2/3 channels) [µM]
CCOc1cc(Oc2cnc(N)nc2N)n(C(C)C)n1 [Compound 1],6.92,> 10
COc1cc(Oc2cnc(N)nc2N)n(C(C)C)n1 [Compound 2],0.288,1.95
